Assay results from US20230085307A1, “PYRIDAZINONE COMPOUND AND HERBICIDE” (NISSAN CHEMICAL CORPORATION, priority 2019, published 2023).

What was measured:
windgrass = test: Test Example 5: herbicidal effect by foliage application, plastic box (Table 20, symbol L); assay type: in vivo, windgrass (Apera spica-venti); details: foliage application; for L: windgrass, herbicidal effect: three weeks after application
How it was run: (§1)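 Plants were sown into sterilized diluvial soil under about 1.5 cm cover and kept in a greenhouse at 25° C. to 30° C. Fourteen days on, foliage received an even spray of the diluted emulsion. Herbicidal or crop effect was judged three weeks afterwards.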

blackgrass = test: Test Example 4: herbicidal effect by soil treatment (Table 19, symbol J); assay type: in vivo, blackgrass (Alopecurus myosuroides)
How it was run: (§2)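 In this soil treatment, the formulated compound reached the seeds only through the soil: seeds were buried about 1.5 cm deep in sterilized diluvial soil, then the diluted emulsion was sprayed over the surface. After three weeks at 25° C. to 30° C. in a greenhouse, effects were graded on criteria from an earlier test.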

southern crabgrass [1] = test: Test Example 5: herbicidal effect by foliage application, plastic box (Table 20, symbol F); assay type: in vivo, southern crabgrass (Digitaria ciliaris); details: foliage application; for F: southern crabgrass, herbicidal effect: three weeks after application
How it was run: as §1

oval-leafed pondweed = test: Test Example 2: herbicidal activity, application during weed generation under submerged conditions (Table 17, symbol C); assay type: in vivo, oval-leafed pondweed (Monochoria vaginalis); details: AAH 320 g/ha; application during weed generation, submerged conditions
How it was run: (§3)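 Effect on each weed is rated three weeks post-treatment, using the same scoring criteria as the preceding test. Plants grow from mixed-sown seed in flooded alluvial soil (4 cm water) at 25° C. to 30° C., and are treated at one to two leaves with diluted emulsion dropped onto the water.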

late watergrass = test: Test Example 1: herbicidal activity, application before weed generation under submerged conditions (Table 16, symbol A); assay type: in vivo, late watergrass (Echinochloa oryzicola); details: 320 g/ha applied herbicide
How it was run: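 Alluvial soil was flooded to 4 cm depth, weed seeds were sown mixed and 2.5-leaf rice seedlings were transplanted. On sowing day, the compound's emulsion, diluted in water to a set dose, was applied to the water surface. Plants grew at 25–30 °C and were scored 0–5 after three weeks.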

Italian ryegrass = test: Test Example 4: herbicidal effect by soil treatment (Table 19, symbol K); assay type: in vivo, Italian ryegrass (Lolium multiflorum)
How it was run: as §2

redroot pigweed = test: Test Example 4: herbicidal effect by soil treatment (Table 19, symbol N); assay type: in vivo, redroot pigweed (Amaranthus retroflexus)
How it was run: as §2

green foxtail [2] = test: Test Example 4: herbicidal effect by soil treatment (Table 19, symbol G); assay type: in vivo, green foxtail (Setaria viridis)
How it was run: as §2

chickweed [3] = test: Test Example 5: herbicidal effect by foliage application, plastic box (Table 20, symbol P); assay type: in vivo, common chickweed (Stellaria media); details: foliage application; for P: chickweed, herbicidal effect: three weeks after application
How it was run: as §1

rice flat sedge = test: Test Example 3: herbicidal effect by foliage application, Wagner pot (Table 18, symbol E); assay type: in vivo, rice flat sedge (Cyperus iria); details: for herbicidal effect on E (rice flat sedge), rating 0-5: 320 g/ha; for herbicidal effect on E: rice flat sedge: amount of applied herbicide 320 g/ha
How it was run: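 Plants were sown in alluvial soil held under 0.1–0.5 cm standing water and grown 14 days in a greenhouse at 25–30 °C. An emulsifiable formulation, water-diluted to the set dose, was then sprayed onto the foliage, and effects were scored three weeks later using previously defined criteria.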

persian speedwell = test: Test Example 5: herbicidal effect by foliage application, plastic box (Table 20, symbol R); assay type: in vivo, Persian speedwell (Veronica persica); details: foliage application; for R: persian speedwell, herbicidal effect: three weeks after application
How it was run: as §1

Japanese bulrush = test: Test Example 2: herbicidal activity, application during weed generation under submerged conditions (Table 17, symbol B); assay type: in vivo, Japanese bulrush (Schoenoplectus juncoides); details: AAH 320 g/ha; application during weed generation, submerged conditions
How it was run: as §3

green foxtail [4] = test: Test Example 5: herbicidal effect by foliage application, plastic box (Table 20, symbol G); assay type: in vivo, green foxtail (Setaria viridis); details: foliage application; for G: green foxtail, herbicidal effect: three weeks after application
How it was run: as §1

chickweed [5] = test: Test Example 4: herbicidal effect by soil treatment (Table 19, symbol P); assay type: in vivo, common chickweed (Stellaria media)
How it was run: as §2

southern crabgrass [6] = test: Test Example 4: herbicidal effect by soil treatment (Table 19, symbol F); assay type: in vivo, southern crabgrass (Digitaria ciliaris)
How it was run: as §2

wild oat = test: Test Example 5: herbicidal effect by foliage application, plastic box (Table 20, symbol I); assay type: in vivo, wild oat (Avena fatua); details: foliage application; for I: wild oat, herbicidal effect: three weeks after application
How it was run: as §1

[7] = amount of applied herbicide 320 g/ha
[8] = AAH 320 g/ha, evaluated three weeks after application
[9] = 320 g/ha, evaluated three weeks after application

Compound | L: windgrass, herbicidal effect (windgrass; AAH 320 g/ha) | F: southern crabgrass, herbicidal effect (southern crabgrass [1]; AAH 320 g/ha) | herbicidal effect rating, C: oval-leafed pondweed (oval-leafed pondweed) | Herbicidal effect on A: late watergrass (grade 0-5) (late watergrass) | P: chickweed, herbicidal effect (chickweed [3]; AAH 320 g/ha) | herbicidal effect on E (rice flat sedge), rating 0-5 (rice flat sedge) | R: persian speedwell, herbicidal effect (persian speedwell; AAH 320 g/ha) | herbicidal effect rating, B: Japanese bulrush (Japanese bulrush) | G: green foxtail, herbicidal effect (green foxtail [4]; AAH 320 g/ha) | I: wild oat, herbicidal effect (wild oat; AAH 320 g/ha) | herbicidal effect on J: blackgrass (blackgrass; [7]) | herbicidal effect on K: Italian ryegrass (Italian ryegrass; [7]) | herbicidal effect on N: redroot pigweed (redroot pigweed; [7]) | herbicidal effect on G: green foxtail (green foxtail [2]; [7]) | herbicidal effect on E: rice flat sedge (rice flat sedge) | herbicidal effect on P: chickweed (chickweed [5]; [7]) | herbicidal effect on F: southern crabgrass (southern crabgrass [6]; [7]) | further results
C=CCOc1ccccc1-c1sc2ccccc2c1-c1c(O)c(C)nn(C)c1=O [1-110] | 3 (Herbicidal rate of 40% or more and less than 70%) | 4 (Herbicidal rate of 70% or more and less than 90%) | 0 (Herbicidal rate of 5% or less (almost no effect)) | 3 (Herbicidal rate of 40% or more and less than 70%) | 5 (Herbicidal rate of 90% or more (almost completely withered)) | 4 (Herbicidal rate of 70% or more and less than 90%) | 5 (Herbicidal rate of 90% or more (almost completely withered)) | 2 (Herbicidal rate of 20% or more and less than 40%) | 4 (Herbicidal rate of 70% or more and less than 90%) | 3 (Herbicidal rate of 40% or more and less than 70%) | – | – | – | – | – | – | – | herbicidal effect rating, J: blackgrass (blackgrass; [7]): 2 (Herbicidal rate of 20% or more and less than 40%); herbicidal effect rating, K: Italian ryegrass (Italian ryegrass; [7]): 2 (Herbicidal rate of 20% or more and less than 40%); herbicidal effect rating, N: redroot pigweed (redroot pigweed; [7]): 0 (Herbicidal rate of 5% or less (almost no effect)); herbicidal effect rating, G: green foxtail (green foxtail [2]; [7]): 3 (Herbicidal rate of 40% or more and less than 70%); herbicidal effect rating, P: chickweed (chickweed [5]; [7]): 3 (Herbicidal rate of 40% or more and less than 70%); herbicidal effect rating, F: southern crabgrass (southern crabgrass [6]; [7]): 3 (Herbicidal rate of 40% or more and less than 70%)
Cc1nn(C)c(=O)c(-c2c(-c3ccc(OC(F)F)cc3)sc3ccc(F)cc23)c1OC(=O)c1cccs1 [2-288] | – | – | 3 (Herbicidal rate of 40% or more and less than 70%) | 5 (Herbicidal rate of 90% or more (almost completely withered)) | – | – | – | 3 (Herbicidal rate of 40% or more and less than 70%) | – | – | 0 (Herbicidal rate of 5% or less (almost no effect)) | 4 (Herbicidal rate of 70% or more and less than 90%) | 4 (Herbicidal rate of 70% or more and less than 90%) | 4 (Herbicidal rate of 70% or more and less than 90%) | 5 (Herbicidal rate of 90% or more (almost completely withered)) | 4 (Herbicidal rate of 70% or more and less than 90%) | 3 (Herbicidal rate of 40% or more and less than 70%) | L: windgrass, herbicidal effect (criteria 0-5) (windgrass; [8]): 3 (Herbicidal rate of 40% or more and less than 70%); F: southern crabgrass, herbicidal effect (criteria 0-5) (southern crabgrass [1]; [8]): 2 (Herbicidal rate of 20% or more and less than 40%); P: chickweed, herbicidal effect (criteria 0-5) (chickweed [3]; [8]): 5 (Herbicidal rate of 90% or more (almost completely withered)); R: persian speedwell, herbicidal effect (criteria 0-5) (persian speedwell; [8]): 5 (Herbicidal rate of 90% or more (almost completely withered)); G: green foxtail, herbicidal effect (criteria 0-5) (green foxtail [4]; [8]): 5 (Herbicidal rate of 90% or more (almost completely withered)); I: wild oat, herbicidal effect (criteria 0-5) (wild oat; [8]): 1 (Herbicidal rate of 5% or more and less than 20%)
CCCC(=O)Oc1c(C)nn(C)c(=O)c1-c1c(-c2cccc(OCC(C)C)c2)sc2ccc(F)cc12 [2-222] | – | – | 3 (Herbicidal rate of 40% or more and less than 70%) | 5 (Herbicidal rate of 90% or more (almost completely withered)) | – | – | – | 3 (Herbicidal rate of 40% or more and less than 70%) | – | – | 4 (Herbicidal rate of 70% or more and less than 90%) | 2 (Herbicidal rate of 20% or more and less than 40%) | 5 (Herbicidal rate of 90% or more (almost completely withered)) | 2 (Herbicidal rate of 20% or more and less than 40%) | 4 (Herbicidal rate of 70% or more and less than 90%) | 2 (Herbicidal rate of 20% or more and less than 40%) | 1 (Herbicidal rate of 5% or more and less than 20%) | herbicidal effect on L: windgrass (criteria 0-5) (windgrass; [9]): 4 (Herbicidal rate of 70% or more and less than 90%); herbicidal effect on F: southern crabgrass (criteria 0-5) (southern crabgrass [1]; [9]): 5 (Herbicidal rate of 90% or more (almost completely withered)); herbicidal effect on P: chickweed (criteria 0-5) (chickweed [3]; [9]): 5 (Herbicidal rate of 90% or more (almost completely withered)); herbicidal effect on R: persian speedwell (criteria 0-5) (persian speedwell; [9]): 5 (Herbicidal rate of 90% or more (almost completely withered)); herbicidal effect on G: green foxtail (criteria 0-5) (green foxtail [4]; [9]): 5 (Herbicidal rate of 90% or more (almost completely withered)); herbicidal effect on I: wild oat (criteria 0-5) (wild oat; [9]): 3 (Herbicidal rate of 40% or more and less than 70%)
CCCC(=O)Oc1c(C)nn(C)c(=O)c1-c1c(-c2ccc(OC)c(F)c2)sc2ccc(F)cc12 [2-087] | – | – | 0 (Herbicidal rate of 5% or less (almost no effect)) | 5 (Herbicidal rate of 90% or more (almost completely withered)) | – | 5 (Herbicidal rate of 90% or more (almost completely withered)) | – | 2 (Herbicidal rate of 20% or more and less than 40%) | – | – | – | – | – | – | – | – | – | herbicidal effect on L: windgrass (windgrass; [9]): 0 (Herbicidal rate of 5% or less (almost no effect)); herbicidal effect rating, J: blackgrass (blackgrass; 320 g/ha): 0 (Herbicidal rate of 5% or less (almost no effect)); herbicidal effect on F: southern crabgrass (southern crabgrass [1]; [9]): 0 (Herbicidal rate of 5% or less (almost no effect)); herbicidal effect rating, K: Italian ryegrass (Italian ryegrass; 320 g/ha): 0 (Herbicidal rate of 5% or less (almost no effect)); herbicidal effect rating, N: redroot pigweed (redroot pigweed; 320 g/ha): 3 (Herbicidal rate of 40% or more and less than 70%); herbicidal effect rating, G: green foxtail (green foxtail [2]; 320 g/ha): 0 (Herbicidal rate of 5% or less (almost no effect)); herbicidal effect on P: chickweed (chickweed [3]; [9]): 5 (Herbicidal rate of 90% or more (almost completely withered)); herbicidal effect on R: persian speedwell (persian speedwell; [9]): 5 (Herbicidal rate of 90% or more (almost completely withered)); herbicidal effect on G: green foxtail (green foxtail [4]; [9]): 0 (Herbicidal rate of 5% or less (almost no effect)); herbicidal effect rating, P: chickweed (chickweed [5]; 320 g/ha): 3 (Herbicidal rate of 40% or more and less than 70%); herbicidal effect rating, F: southern crabgrass (southern crabgrass [6]; 320 g/ha): 0 (Herbicidal rate of 5% or less (almost no effect)); herbicidal effect on I: wild oat (wild oat; [9]): 0 (Herbicidal rate of 5% or less (almost no effect))
C#CCOc1ccc(-c2sc3ccccc3c2-c2c(O)c(C)nn(C)c2=O)cc1 [1-136] | 5 (Herbicidal rate of 90% or more (almost completely withered)) | 0 (Herbicidal rate of 5% or less (almost no effect)) | 0 (Herbicidal rate of 5% or less (almost no effect)) | 3 (Herbicidal rate of 40% or more and less than 70%) | 5 (Herbicidal rate of 90% or more (almost completely withered)) | 5 (Herbicidal rate of 90% or more (almost completely withered)) | 5 (Herbicidal rate of 90% or more (almost completely withered)) | 2 (Herbicidal rate of 20% or more and less than 40%) | 5 (Herbicidal rate of 90% or more (almost completely withered)) | 0 (Herbicidal rate of 5% or less (almost no effect)) | – | – | – | – | – | – | – | J: blackgrass, herbicidal effect rating (blackgrass; AAH 320 g/ha): 0 (Herbicidal rate of 5% or less (almost no effect)); K: Italian ryegrass, herbicidal effect rating (Italian ryegrass; AAH 320 g/ha): 5 (Herbicidal rate of 90% or more (almost completely withered)); N: redroot pigweed, herbicidal effect rating (redroot pigweed; AAH 320 g/ha): 4 (Herbicidal rate of 70% or more and less than 90%); G: green foxtail, herbicidal effect rating (green foxtail [2]; AAH 320 g/ha): 4 (Herbicidal rate of 70% or more and less than 90%); P: chickweed, herbicidal effect rating (chickweed [5]; AAH 320 g/ha): 1 (Herbicidal rate of 5% or more and less than 20%); F: southern crabgrass, herbicidal effect rating (southern crabgrass [6]; AAH 320 g/ha): 2 (Herbicidal rate of 20% or more and less than 40%)
